# How the values were obtained:
# [1] = tested on: interferon-stimulated gene (ISG) response; experiment: In vivo decitabine challenge model in C57BL/6 mice (ISG response); parameters: species or system mouse; conditions: decitabine i.p. 5 mg/kg, compound p.o. 0.6, 2.0, 6.0 mg/kg daily Day 0 to Day 4, IFIT2 v. GAPDH
# Protocol: Exemplary compounds were tested for ability to alter the interferon-stimulated gene (ISG) response in C57BL/6 mice treated with decitabine. Assay procedures and results are described below. Twenty 9-11 week old C57BL/6 mice were acclimated to the lab for at least 5 days. Compound 23 was prepared in a 0.5% methylcellulose solution for p.o. administration. Decitabine (Sigma-Aldrich) was dissolved in sterile PBS (pH 7.4) and dosed within 30 minutes of preparation of the solution. Doses of both the compound and decitabine were administered once a day, every day from Day 0 to Day 4. On Day 0, mice were split into five groups of five mice and given their first dose of decitabine (i.p., 5 mg/kg) and compound 23. Dosing groups were: Decitabine and compound 23 were administered daily from Day 0 to Day 4. All mice were euthanized 1 hour after the last dose administration on Day 4. Spleens, liver, and terminal colon were collected, along with plasma from each animal. The fold changes in interferon-stimulated gene (ISG) expression was calculated by first normalizing to GAPDH gene using the Delta CT method. The CT (gene of interest)—CT (reference gene) was calculated to generate a delta CT for all samples. The fold change was then calculated by taking the Log2(Delta CT(control)—Delta CT (experimental). The control in this example was the PBS control animal group. The Taqman duplex assay was used to determine levels of GAPDH v. IFIT2. Twenty 9-11 week old C57BL/6 mice were acclimated to the lab for at least 5 days. Compound 2 was prepared in 20% PEG400 in PBS (final pH 4.5) for p.o. administration. Decitabine (Sigma) was dissolved in sterile PBS (pH 7.4) and dosed within 30 minutes of preparation of the solution. Doses of both Compound 2 and decitabine were administered once a day. On Day 0, mice were split into five groups of five mice and given their first dose of decitabine and Compound 2. […] The fold changes in interferon-stimulated gene (ISG, specifically IRF7 and MX1) expression was calculated by first normalizing to GAPDH gene using the Delta CT method. […]
# human PBMC = experiment: Decitabine-stimulated human PBMC assay (IFN-β, cell viability); type: cell-based; conditions: anti-CD3/anti-CD28, decitabine 10 μM, 5 days
# Protocol: EasySep buffer (32 mL, […] Technologies, cat. #20144) was used to dilute 8 mL of LRSC buffy coat (from fresh Leukopak) with gentle mixing. The diluted buffy coat (20 mL) was transferred into each of two SepMate 50 tubes, and the tubes were filled with 15 mL of Lyphoprep ([…], cat. #07851) density gradient. The SepMate tubes were then centrifuged at 1200G for 10 minutes at room temperature with the brake on. The top layer of supernatant was collected in SepMate tubes by quickly pouring it into a new 50 mL conical tube. The PBMCs were washed with EasySep buffer ×2 by centrifuging at 300G for 5 minutes. The cells were resuspended in 30 mL of EasySep and centrifuged at 100G for 5 minutes with the brake off, and the platelets were removed. The cells were then resuspended in 6 mL of 1×RBC lysis buffer (Invitrogen) and incubated at 37° C. for 5 minutes. 25 mL of EasySep buffer was then mixed into the tube and centrifuged at 300G for 5 minutes. The cells were resuspended in 10 mL of EasySep buffer and the cells were then counted with Cellometer (AO/PI). The PBMCs were resuspended in RPMI1640 (ThermoFisher)^+10% FBS (HyClone)^+μ/s at 3×10^6/mL. The PBMCs (100 μL, 300 k PBMCs) were then seeded in a 96-well flat bottom microplate (Corning) that had been precoated with 100 μL of anti-CD3 antibody (10 μg/mL in PBS, Biolegend) or PBS at 4° C., one day before the assay was commenced.
# To each well the following solutions were added 1) 100 μL of cells (final cell number per well is 3×10^5 cell/well); 2) 25 μL of anti-CD28 antibody at 6×(5 μg/mL final concentration, Biolegend); 3) 25 μL of decitabine at 6×(10 μM final concentration); and 4) Compound in DMSO was dispensed directly into each well with a d300e digital dispenser (Tecan). The final concentration of DMSO for each well was normalized to 0.3%. The plate was incubated at 37° C. without any agitation for 5 days. Samples were collected 120 hours after incubation to determine IFN-0 and IL-2 levels using a U-PLEX Human IFN-β Assay Sector (5PL) (MSD, cat. #K151VIK-2).
# After 5 days, the plate was spun down at 100×G for 5 minutes. Supernatants (100 μL) were collected for interferon β(IFN-β) analysis using the MSD assay noted above, and any residual supernatant was stored at −80° C.
# [2] = target: T1, LINE1 reverse transcriptase (Homo sapiens, UniProt O00370); experiment: Stable artificial-intron Cis LINE1 reporter assay (HeLa Tet-On 3G, Firefly luciferase); type: cell-based; conditions: HeLa L1 artificial-intron reporter cells, doxycycline 500 ng/mL, 72 h, class symbols
# T1 construct: expressed in transfected cells; host or cells: HeLa Tet-On 3G (Takara, cat no 631183)
# In short: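 HeLa Tet-On 3G clone stably carrying a bi-directional doxycycline-inducible artificial-intron LINE1 reporter, plated at 8,000 cells/well onto serially diluted compound. Expression induced with 500 ng/mL doxycycline (final); Firefly luciferase luminescence (Dual-Glo) read 72 h after plating as LINE1 activity.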
# [3] = target: T2, HERV-K reverse transcriptase (Homo sapiens, UniProt V9H0F6); experiment: Homogeneous time-resolved fluorescence (HTRF) HERV-K RT assay; type: biochemical; conditions: triphosphate analogs, HERV-K enzyme 16 ng/well, 25° C. 30 minutes
# T2 construct: fused on or other part: C-terminal 8xHis tag
# Protocol: Exemplary triphosphate analogs were tested for ability to inhibit HERV-K reverse transcriptase using a homogeneous time-resolved fluorescence (HTRF) assay. Assay procedures and results are described below.
# The HERV-K reverse transcriptase homogeneous time-resolved fluorescence (HTRF) assay was performed in a 384-well format with HERV-K reverse transcriptase (2-596)-8His protein. Baculoviruses were created using Bac-to-Bac technology (Invitrogen). pFastflac donor plasmids containing HERV-K reverse transcriptase sequence (NCBI GenBank number AAC63291.1, J. Virology (1999) Vol. 73, No. 3, pp. 2365-2375) were transformed into DH10 Bac cells following the manufacturer's instructions. Recombinant bacmids were then isolated clonally and transfected into SF9 cells with lipofectin. HERV-K reverse transcriptase was expressed in the SF9 insect cells and then purified using immobilized metal affinity chromatography (IMAC) followed by size-exclusion chromatography (SEC).
# Test compound was serially diluted in DMSO and further diluted in the assay buffer (50 mM Tris-HCl, 50 mM KCl, 10 mM MgCl2, 10 mM DTT, pH 8.1) to achieve a final DMSO concentration of 1%. The serially diluted compound was mixed with 16 ng/well of HERV-K enzyme, 5 nM of pre-annealed template/biotin-primer pair (synthesized at Geneway Biotechnology), 10 nM of Fluorescein-12-dCTP fluorescent probe (PerkinElmer), and 1 mM dGTP, dATP, and DTTP (ThermoFisher). The template/biotin-primer sequences were:
# After incubating at 25° C. for 30 minutes, the detection reagent 20 mM EDTA with streptavidin-terbium cryptate (Cisbio Bioassay) in the PPI buffer (Cisbio Bioassay) was added, and the mixture was incubated at 25° C. for 60 minutes. At the end of the incubation, fluorescence was read at ex/em=337/485 nm and ex/em=337/520 nm on an Envision 2104 plate reader (PerkinElmer). The fluorescence ratio at 520/485 nm was used for the calculation. […] IC50 values were calculated by fitting the compound dose inhibition curve with a 4-parameter non-linear regression equation.
# [4] = target: T3, LINE1 reverse transcriptase (recombinant MBP-tagged LINE1 protein (238-1061)) (Homo sapiens, UniProt O00370); experiment: Homogeneous time-resolved fluorescence (HTRF) LINE1 RT assay; type: biochemical; conditions: triphosphate analogs, LINE1 enzyme 64 ng/well, 25° C. 60 minutes
# T3 construct: recombinant MBP-tagged LINE1 protein (238-1061); made in house
# Protocol: Exemplary triphosphate analogs were tested for the ability to inhibit LINE1 reverse transcriptase using a homogeneous time-resolved fluorescence (HTRF) assay. Assay procedures and results are described below.
# The LINE1 reverse transcriptase homogeneous time-resolved fluorescence (HTRF) assay was performed with recombinant MBP-tagged LINE1 protein (238-1061) (generated and purified according to procedures in Dai L. et al. BMC Biochemistry 2011; 12:18) in a 384-well format. Test compound was serially diluted in DMSO and further diluted in the assay buffer (50 mM Tris-HCl, 50 mM KCl, 10 mM MgCl2, 10 mM DTT, pH 8.1) to achieve a final DMSO concentration of 1%. The serially diluted compound was mixed with 64 ng/well of LINE1 enzyme, 5 nM of pre-annealed template/biotin-primer pair (synthesized at Generay Biotechnology), 10 nM of Fluorescein-12-dCTP fluorescent probe (PerkinElmer), and 1 μM dGTP/dATP/dTTP (ThermoFisher Scientific) in the assay buffer. The template/biotin-primer sequences were as follows:
# After incubating at 25° C. for 60 minutes, the detection reagent (20 mM EDTA with streptavidin-terbium cryptate, Cisbio Bioassay) in the PPI buffer (Cisbio Bioassay) was added, and the mixture was incubated at 25° C. for 30 minutes. At the end of the incubation, fluorescence was read at ex/em=337/485 nm and ex/em=337/520 nm on an Envision 2104 plate reader (PerkinElmer). The fluorescence ratio at 520/485 nm was used for the calculation. […] The IC50 was calculated by fitting the compound dose inhibition curve with a 4-parameter non-linear regression equation.
# T2 sequence (V9H0F6 entry or part of it): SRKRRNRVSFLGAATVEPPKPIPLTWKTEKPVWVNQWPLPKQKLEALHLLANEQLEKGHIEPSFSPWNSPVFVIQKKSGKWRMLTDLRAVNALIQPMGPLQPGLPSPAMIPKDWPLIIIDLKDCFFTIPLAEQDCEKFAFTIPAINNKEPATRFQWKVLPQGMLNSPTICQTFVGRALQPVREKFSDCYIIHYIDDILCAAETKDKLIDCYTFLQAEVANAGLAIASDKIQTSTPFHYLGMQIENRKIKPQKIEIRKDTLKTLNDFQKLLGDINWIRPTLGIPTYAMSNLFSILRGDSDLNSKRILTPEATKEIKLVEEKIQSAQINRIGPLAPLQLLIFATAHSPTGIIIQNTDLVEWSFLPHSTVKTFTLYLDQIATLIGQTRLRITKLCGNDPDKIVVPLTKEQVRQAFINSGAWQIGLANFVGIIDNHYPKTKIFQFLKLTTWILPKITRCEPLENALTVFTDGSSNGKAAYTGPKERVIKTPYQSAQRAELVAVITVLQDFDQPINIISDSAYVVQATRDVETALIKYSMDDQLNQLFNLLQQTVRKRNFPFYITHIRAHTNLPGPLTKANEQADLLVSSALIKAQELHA
Compound,change in interferon-stimulated gene (ISG) response (FIG. 2A) [1],IFN-β level (human PBMC),IC50 [2] [nM],IC50 [3] [nM],IC50 [4] [nM]
"C#C[C@]1(CO)O[C@@H](n2cnc3c(N)nc(F)nc32)C[C@@H]1O [Compound 23, (2R,3S,5R)-5-(6-amino-2-fluoro-9H-purin-9-yl)-2-ethynyl-2-(hydroxymethyl) tetrahydrofuran-3-ol]",change in ISG response,activated production of IFN-β,≤ 50,–,–
"C#C[C@]1(CO)O[C@@H](n2cnc3c(N)nc(Cl)nc32)C[C@@H]1O [Compound 25, (2R,3S,5R)-5-(6-amino-2-chloro-9H-purin-9-yl)-2-ethynyl-2-(hydroxymethyl) tetrahydrofuran-3-ol]",–,activated production of IFN-β,≤ 50,–,–
"Nc1nc(=O)n([C@@H]2O[C@](CBr)(COP(=O)(O)OP(=O)(O)OP(=O)(O)O)[C@@H](O)[C@@H]2F)cc1F [Compound 86-TP, ((2R,3R,4S,5R)-5-(4-amino-5-fluoro-2-oxopyrimidin-1(2H)-yl)-2-(bromomethyl)-4-fluoro-3-hydroxytetrahydrofuran-2-yl) methyl tetrahydrogen triphosphate; tetrakis(triethylamine)]",–,–,–,> 10000,1610
"O=c1[nH]c(=O)n([C@@H]2O[C@@](CO)(CCO)[C@@H](O)[C@@H]2F)cc1F [Compound 179, 5-fluoro-1-((2R,3S,4R,5R)-3-fluoro-4-hydroxy-5-(2-hydroxyethyl)-5-(hydroxymethyl)tetrahydrofuran-2-yl) pyrimidine-2,4(1H,3H)-dione]",–,–,> 1000,–,–
"Cc1cn([C@H]2C[C@H](F)[C@@](C)(CO)O2)c(=O)[nH]c1=O [Compound 180, 1-((2R,4S,5R)-4-fluoro-5-(hydroxymethyl)-5-methyltetrahydrofuran-2-yl)-5-methylpyrimidine-2,4(1H,3H)-dione]",–,–,> 1000,–,–

# From patent publication US20230295212A1 (ROME Therapeutics, Inc., priority 2022, published 2023)
